Experimental data from patent US20110136762A1, “FUNGICIDAL PYRIDAZINES” (E.I. Du Pont de Nemours and Company, priority 2008, published 2011).

Experiments:
Type in all cases: in vivo
Erysiphe graminis = test: Test A: wheat powdery mildew, preventive spray on wheat seedlings, visual disease rating; settings: 200 ppm, 100 = 100% disease control, 0 = no disease control relative to controls; for pest or weed control at 200 ppm: Blumeria graminis, 192 h
Text: General protocol for preparing test suspensions for Tests A-F: […] The resulting test suspensions were then used in Tests A-F. The test suspensions were sprayed to the point of run-off on the test plants. All results are for 200 ppm (equivalent to a rate of 500 g/ha) except where followed by “*” which indicates 40 ppm. The test suspension was sprayed to the point of run-off on wheat seedlings. The following day the seedlings were inoculated with a spore dust of Erysiphe graminis, (the causal agent of wheat powdery mildew) and incubated in a growth chamber at 20° C. for 8 days, after which time visual disease ratings were made. […] A dash (-) indicates no test results. All results are for 200 ppm except where followed by “*”, which indicates 40 ppm.

[1] = tested on: Puccinia recondita f. sp. tritici; test: Test B: wheat leaf rust, preventive spray on wheat seedlings, visual disease rating; settings: 200 ppm, 100 = 100% disease control, 0 = no disease control relative to controls; for pest or weed control at 200 ppm: 192 h
Text: General protocol for preparing test suspensions for Tests A-F: […] The resulting test suspensions were then used in Tests A-F. The test suspensions were sprayed to the point of run-off on the test plants. All results are for 200 ppm (equivalent to a rate of 500 g/ha) except where followed by “*” which indicates 40 ppm. The test suspension was sprayed to the point of run-off on wheat seedlings. The following day the seedlings were inoculated with a spore suspension of Puccinia recondita f. sp. tritici (the causal agent of wheat leaf rust) and incubated in a saturated atmosphere at 20° C. for 24 h, and then moved to a growth chamber at 20° C. for 7 days, after which time visual disease ratings were made. […] A dash (-) indicates no test results. All results are for 200 ppm except where followed by “*”, which indicates 40 ppm.

Septoria tritici = test: Test C: wheat leaf blotch, preventive spray on wheat seedlings, visual disease rating; settings: 200 ppm, 100 = 100% disease control, 0 = no disease control relative to controls; for pest or weed control at 200 ppm: Zymoseptoria tritici, 504 h
Text: General protocol for preparing test suspensions for Tests A-F: […] The resulting test suspensions were then used in Tests A-F. The test suspensions were sprayed to the point of run-off on the test plants. All results are for 200 ppm (equivalent to a rate of 500 g/ha) except where followed by “*” which indicates 40 ppm. The test suspension was sprayed to the point of run-off on wheat seedlings. The following day the seedlings were inoculated with a spore suspension of Septoria tritici (the causal agent of wheat leaf blotch) and incubated in saturated atmosphere at 20° C. for 48 h, and moved to a growth chamber at 20° C. for 19 additional days, after which time visual disease ratings were made. […] A dash (-) indicates no test results. All results are for 200 ppm except where followed by “*”, which indicates 40 ppm.

Septoria nodorum = test: Test D: wheat glume blotch, preventive spray on wheat seedlings, visual disease rating; settings: 200 ppm, 100 = 100% disease control, 0 = no disease control relative to controls; for pest or weed control at 200 ppm: Parastagonospora nodorum
Text: General protocol for preparing test suspensions for Tests A-F: […] The resulting test suspensions were then used in Tests A-F. The test suspensions were sprayed to the point of run-off on the test plants. All results are for 200 ppm (equivalent to a rate of 500 g/ha) except where followed by “*” which indicates 40 ppm. The test suspension was sprayed to the point of run-off on wheat seedlings. The following day the seedlings were inoculated with a spore suspension of Septoria nodorum (the causal agent of wheat glume blotch) and incubated in a saturated atmosphere at 20° C. for 48 h, and then moved to a growth chamber at 20° C. for 7 days, after which time visual disease ratings were made. […] A dash (-) indicates no test results. All results are for 200 ppm except where followed by “*”, which indicates 40 ppm.

Alternaria solani = test: Test E: tomato early blight, preventive spray on tomato seedlings, visual disease rating; settings: 200 ppm, 100 = 100% disease control, 0 = no disease control relative to controls; for pest or weed control at 200 ppm: Alternaria solani
Text: General protocol for preparing test suspensions for Tests A-F: […] The resulting test suspensions were then used in Tests A-F. The test suspensions were sprayed to the point of run-off on the test plants. All results are for 200 ppm (equivalent to a rate of 500 g/ha) except where followed by “*” which indicates 40 ppm. The test suspension was sprayed to the point of run-off on tomato seedlings. […] A dash (-) indicates no test results. All results are for 200 ppm except where followed by “*”, which indicates 40 ppm.

Botrytis cinerea = test: Test F: tomato Botrytis, preventive spray on tomato seedlings, visual disease rating; settings: 200 ppm, 100 = 100% disease control, 0 = no disease control relative to controls; for pest or weed control at 200 ppm: Botrytis cinerea
Text: General protocol for preparing test suspensions for Tests A-F: […] The resulting test suspensions were then used in Tests A-F. The test suspensions were sprayed to the point of run-off on the test plants. All results are for 200 ppm (equivalent to a rate of 500 g/ha) except where followed by “*” which indicates 40 ppm. The test suspension was sprayed to the point of run-off on tomato seedlings. The following day the seedlings were inoculated with a spore suspension of Botrytis cinerea (the causal agent of tomato Botrytis) and incubated in saturated atmosphere at 20° C. for 48 h, and then moved to a growth chamber at 24° C. for 3 days, after which time visual disease ratings were made. […] A dash (-) indicates no test results. All results are for 200 ppm except where followed by “*”, which indicates 40 ppm.

SMILES	pest or weed control at 200 ppm (Erysiphe graminis) [%]	pest or weed control at 200 ppm [1] [%]	pest or weed control at 200 ppm (Septoria tritici) [%]	pest or weed control at 200 ppm (Septoria nodorum) [%]	pest or weed control at 200 ppm (Alternaria solani) [%]	pest or weed control at 200 ppm (Botrytis cinerea) [%]	Test A rating (disease control, wheat powdery mildew) (Erysiphe graminis) [%]	Test B rating (disease control, wheat leaf rust) [1] [%]	Test C rating (disease control, wheat leaf blotch) (Septoria tritici) [%]	Test D rating (disease control, wheat glume blotch) (Septoria nodorum) [%]	Test E rating (disease control, tomato early blight) (Alternaria solani) [%]	Test F rating (disease control, tomato Botrytis) (Botrytis cinerea) [%]
COc1cc(OC)cc(-c2c(-c3ccccc3)nnc(C)c2-c2ccc(F)cc2)c1 [Compound 1, 4-(3,5-dimethoxyphenyl)-5-(4-fluorophenyl)-6-methyl-3-phenylpyridazine]	85	99	100	0	72	98						
COc1cc(OC)cc(-c2c(-c3ccccc3F)nnc(C)c2-c2ccc(F)cc2)c1 [Compound 2, 4-(3,5-dimethoxyphenyl)-3-(2-fluorophenyl)-5-(4-fluorophenyl)-6-methylpyridazine]	97	99	100	0	99	99						
COc1cc(OC)cc(-c2c(-c3ccccc3)nnc(C)c2-c2ccccc2)c1 [Compound 3]							52	86	87	0	0	52
COc1cc(OC)cc(-c2c(-c3ccccc3F)nnc(C)c2-c2ccccc2)c1 [Compound 4]							82	96	84	0	28	94
COc1cc(OC)cc(-c2c(-c3ccc(F)cc3F)nnc(C)c2-c2ccccc2)c1 [Compound 5]							91	86	94	0	0	82
COc1cc(OC)cc(-c2c(-c3ccccc3)nnc(C)c2-c2ccc(Cl)cc2)c1 [Compound 6]							79	97	97	0	36	67
COc1ccc(-c2c(C)nnc(-c3ccccc3)c2-c2cc(OC)cc(OC)c2)cc1 [Compound 7, 4-(3,5-dimethoxyphenyl)-5-(4-methoxyphenyl)-6-methyl-3-phenylpyridazine]	95	100	100	90	96	97						
COc1ccc(-c2c(C)nnc(-c3ccccc3F)c2-c2cc(OC)cc(OC)c2)cc1 [Compound 8, 4-(3,5-dimethoxyphenyl)-3-(2-fluorophenyl)-5-(4-methoxyphenyl)-6-methylpyridazine]	97	100	100	95	99	98						
COc1ccc(-c2c(C)nnc(-c3ccc(F)cc3F)c2-c2cc(OC)cc(OC)c2)cc1 [Compound 9, 3-(2,4-difluorophenyl)-4-(3,5-dimethoxyphenyl)-5-(4-methoxyphenyl)-6-methylpyridazine]	84	91	100	60	81	98						
COc1cc(OC)cc(-c2c(-c3cccc(F)c3F)nnc(C)c2-c2ccccc2)c1 [Compound 10]							97	99	99	0	88	95
